Results from patent publication US20250361217A1, “FATTY ACID COMPOUNDS” (University of Pittsburgh - Of the Commonwealth System of …, priority 2022, published 2025).

Tests used:
[1] = test system: HFD model in C57BL/6J mice; assay: Plasma insulin, metabolic hormones, AST/ALT, TNF-α in HFD mice; assay type: in vivo
Excerpt: Male C57BL/6J mice were purchased from Jackson Laboratory (Bar Harbor, ME, USA). Mice were acclimated for a week before being randomized to receive either a low-fat diet (LFD) or a high-fat diet (HFD) purchased from Research Diets (New Brunswick, NJ, USA). Obesity was induced by the HFD (D12492, with 60% of the adjusted calories derived from fat) for 16 weeks beginning at age of 8 weeks. Age-matched controls were maintained on a LFD (D12450J, matching the sucrose level of D12492). While maintaining the diet, mice under HFD were divided into 4 groups (n=8 per group) and were treated every 2 days by oral gavage for 7 weeks with 100 μl of 11D3 (50 mg/kg), 11U3 (50 mg/kg), or 11U3-2M (50 mg/kg) formulated in a solution of 2:1 of polyethylene glycol (Fisher Scientific, PEG400 #p167-1) and saline, containing 1.5% of octanoic acid (TCI, #00027). Control groups received 100 μl of PEG400/saline/octanoic acid as the vehicle (Veh). LFD mice were divided into 2 groups (n=8 per group) and treated with veh or 11D3 (50 mg/kg) to detect any effect of natural FuFA in LFD. Mice were grouped to start at the same weight mean before starting the treatment. During and before gavage treatment, mice were fed ad libitum and given free access to water. Food intake, water consumption, and mouse weight were monitored every week. At 20 weeks (4 weeks of treatment), a glucose tolerance test (GTT) was performed on all cohorts. After 2 weeks of recovery (22 weeks), a whole-body composition was performed using EchoMRI™-100H. At the end of the 23 weeks study, mice were euthanized with isoflurane followed by laparotomy. The blood was collected, and mice were perfused using 0.9% NaCl. Organs were harvested and snap-frozen in liquid nitrogen gas and stored at −80° C. for further analysis. The Cellerusher (Cell Crusher, Schull, Ireland) tissue pulverizer was used to reduce frozen tissues to a fine, easily recoverable powder using dry ice. For immunohistochemistry, the same liver lobe for every mouse was fixed in Formalin 10% (Fisher Chemical, #SF98-4) for 48h, followed by 75% ethanol baths before paraffin embedding.
After collection, red blood cells and plasma were separated by centrifugation for 5 min at 7500 g at 4° C., aliquoted, and stored at −80° C. Insulin levels were measured by ELISA (Invitrogen, #EMINS) using 50 μl of plasma as per the manufacturer's instructions. Aspartate aminotransferase (AST) and alanine aminotransferase (ALT) levels were both measured using 5 μl of plasma with ELISA (Abcam, #ab263882 and #ab282882, respectively). Metabolic hormones were determined using Luminex xMAP technology (Milliplex mouse metabolic hormone expanded panel #MMHE-44K, Millipore, Burlington, MA, USA). The multiplex metabolic hormones plate was measured as per the manufacturer's instructions.

ACC = assay: Thermal shift assay of liver proteins, ACC; assay type: binding, mice
Procedure: The liver samples (50 mg) were homogenized and vortexed in ice-cold RIPA buffer containing phosphatase (Fisher Scientific, #PIA32957) and protease (Fisher Scientific, #PIA32953) inhibitor cocktails. Protein concentration was determined using a […] (Pierce). Protein lysates were mixed with LDS Sample Buffer (1:4) and heated for 2 min at 95° C. The lysates were then loaded and electrophoresed on a 10% Tris-Glycine eXtended (BioRad, Criterion #5671034). The proteins were electrophoretically transferred to a PVDF membrane (BioRad, #1620177), and the transfer was confirmed by staining the membrane with 0.1% Ponceau S solution (Sigma-Aldrich, #6226-79-5). The membrane was then blocked for 90 min at RT with 5% nonfat dry milk (LabScientific) or 5% BSA (MilliporeSigma) in TBS-T (tris buffered saline+0.1% Tween 20 [Thermo Fisher Scientific]). […] Quantitative densitometric analysis was performed using Image Lab software (Bio-Rad).
Thermal Shift Assay Proteins were extracted from the liver powder (50 mg) with 1 mL of phosphate-buffered saline (PBS—Gibco, Paisley, UK) containing phosphatase (Fisher Scientific, #PIA32957) and protease (Fisher Scientific, #PIA32953) inhibitors. […] The Supernatants were transferred to new tubes and analyzed by western blot as described above.

CCCc1ccc(CCCCCCCCCC(C)(C)C(=O)O)o1 [11U3-2M, 2,2-Dimethyl-11-(5-propylfuran-2-yl)undecanoic acid]
lower insulin plasma level compared to veh (ELISA) ([1]; 50 mg/kg): 68% | plasma level of AST ([1]; 50 mg/kg): significant reduction | plasma level of TNF-α ([1]; 50 mg/kg): significant reduction | lower plasma C-peptide 2 compared to veh ([1]; 50 mg/kg, milliplex): 43% | lower plasma gastric inhibitory polypeptide (GIP) compared to veh ([1]; 50 mg/kg, milliplex): 36% | liver enzyme ALT ([1]; FIG. 3D legend): improving liver enzymes (AST and ALT) | ACC thermal stability (ACC; full cohorts, HFD+11U3-2M, higher temperature (52, 53.5, 55° C.)): greatly increased | ACC thermal stability compared to veh (ACC; one mouse per group, 52, 53.5 and 55° C.): higher stability
